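Where inhibition never reached the appropriate level, the endpoint shown equals the highest concentration tested. Otherwise, values were interpolated linearly from a five-concentration, 48-hour dose response in 96-well plates. GI50: concentration for 50% inhibition of growth.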 Activity calls are given as the source filed them. No stated cut-off is given here; in the data, active = GI50 up to about 1.1 µM and inactive = higher.
Key:
Experiment in all cases: NCI anticancer screen, dose series, 48 h
SR = test system: SR
T47D = test system: T47D
Malme-3M = test system: Malme-3M
UACC-257 = test system: UACC-257
CCRF-CEM = test system: CCRF-CEM
786-0 = test system: 786-0
BT-549 = test system: BT-549
SW-620 = test system: SW-620
NCI-H522 = test system: NCI-H522
SF-295 = test system: SF-295
RXF 393 = test system: RXF 393
HOP-62 = test system: HOP-62
SNB-19 = test system: SNB-19
NCI/ADR-RES = test system: NCI/ADR-RES
HT-29 = test system: HT-29
HCT-15 = test system: HCT-15
OVCAR-4 = test system: OVCAR-4
MCF7 = test system: MCF7
RPMI-8226 = test system: RPMI-8226
SF-539 = test system: SF-539

Structure (SMILES) | GI50 (SR) | GI50 (T47D) | GI50 (Malme-3M) | GI50 (UACC-257) | GI50 (CCRF-CEM) | GI50 (786-0) | GI50 (BT-549) | GI50 (SW-620) | GI50 (NCI-H522) | GI50 (SF-295) | GI50 (RXF 393) | GI50 (HOP-62) | GI50 (SNB-19) | GI50 (NCI/ADR-RES) | GI50 (HT-29) | GI50 (HCT-15) | GI50 (OVCAR-4) | GI50 (MCF7) | GI50 (RPMI-8226) | GI50 (SF-539)
Nc1nc(N)c(CCCCc2ccccc2)c(N)n1 | > 100 µM (inactive) | > 100 µM (inactive) | > 100 µM (inactive) | > 100 µM (inactive) | > 100 µM (inactive) | > 100 µM (inactive) | > 100 µM (inactive) | > 100 µM (inactive) | > 100 µM (inactive) | > 100 µM (inactive) | > 100 µM (inactive) | > 100 µM (inactive) | > 100 µM (inactive) | > 100 µM (inactive) | > 100 µM (inactive) | > 100 µM | > 100 µM (inactive) | > 100 µM (inactive) | > 100 µM (inactive) | > 100 µM (inactive)
CCOC(=O)N1CCc2cc(OC)c(OC)c3c2c1cc1cc(OC)c(OC)cc13 | 0.807 µM (active) | 2.79 µM (inactive) | 3.5 µM (inactive) | 12.1 µM (inactive) | 4.26 µM (inactive) | 2.53 µM (inactive) | 0.577 µM (active) | 1.15 µM (inactive) | 0.618 µM (active) | 0.927 µM (active) | 2 µM (inactive) | 3.27 µM (inactive) | 10.9 µM (inactive) | 0.655 µM (active) | 0.492 µM (active) | 0.914 µM | 10.5 µM (inactive) | 1.1 µM (active) | 3.76 µM (inactive) | 1.69 µM (inactive)
CC1=NN(c2nc(N)nc(/C(C#N)=C\c3ccc(-c4ccc([N+](=O)[O-])cc4)o3)n2)C(C)(C)C1 | 11.1 µM (inactive) | > 100 µM (inactive) | > 100 µM (inactive) | > 100 µM (inactive) | 0.807 µM (active) | > 100 µM (inactive) | > 100 µM (inactive) | > 100 µM (inactive) | > 100 µM (inactive) | > 100 µM (inactive) | > 100 µM (inactive) | 1.78 µM (inactive) | > 100 µM (inactive) | > 100 µM (inactive) | > 100 µM (inactive) | > 100 µM | > 100 µM (inactive) | > 100 µM (inactive) | > 100 µM (inactive) | > 100 µM (inactive)
Cc1cc(=O)oc2cc(OC(=O)N(C)C)c(Cl)cc12 | > 100 µM (inactive) | 85.9 µM (inactive) | 84.3 µM (inactive) | 80.5 µM (inactive) | > 100 µM (inactive) | 87.5 µM (inactive) | > 100 µM (inactive) | > 100 µM (inactive) | 57.7 µM (inactive) | > 10 µM (inactive) | 2 µM (inactive) | 25.1 µM (inactive) | 71.4 µM (inactive) | > 100 µM (inactive) | > 100 µM (inactive) | > 100 µM | > 100 µM (inactive) | > 100 µM (inactive) | > 100 µM (inactive) | 55.3 µM (inactive)
CCCCC/C=C1\CCC(CN2CCOCC2)C1=O (stereo not given) | 3.52 µM (inactive) | 2.72 µM (inactive) | 9.62 µM (inactive) | 9.79 µM (inactive) | 2.9 µM (inactive) | 2.58 µM (inactive) | 14.7 µM (inactive) | 3.2 µM (inactive) | 2.43 µM (inactive) | 16.8 µM (inactive) | 5.66 µM (inactive) | 23.1 µM (inactive) | 16.8 µM (inactive) | 3.94 µM (inactive) | 10.9 µM (inactive) | 5.32 µM | 16.2 µM (inactive) | 1.6 µM (inactive) | 0.449 µM (active) | 14.8 µM (inactive)
CCN(CC)C(=S)SC(C(=O)Nc1nnc(-c2ccc(Cl)cc2)o1)c1ccccc1 (stereo not given) | 4.97 µM (inactive) | 6.53 µM (inactive) | 13.8 µM (inactive) | 31.6 µM (inactive) | 2.84 µM (inactive) | 10 µM (inactive) | 28.5 µM (inactive) | 5.41 µM (inactive) | 4.62 µM (inactive) | 12.8 µM (inactive) | 14.9 µM (inactive) | 14.7 µM (inactive) | 34.6 µM (inactive) | 5.68 µM (inactive) | 4.86 µM (inactive) | 3.81 µM | 3.08 µM (inactive) | 7.26 µM (inactive) | 4.72 µM (inactive) | 14.8 µM (inactive)
COC1=CC(=O)c2c(cc(COP(=O)(OCC3OC(n4cc(F)c(=O)[nH]c4=O)CC3O)N(C)CCCCCl)n2C)C1=O (stereo not given) | < 0.01 µM (active) | 0.991 µM (active) | 2.42 µM (inactive) | 18.5 µM (inactive) | < 0.01 µM (active) | 0.186 µM (active) | 1.56 µM (inactive) | 0.141 µM (active) | 0.495 µM (active) | < 0.0132 µM (active) | 0.0478 µM (active) | 0.0413 µM (active) | 0.951 µM (active) | 0.678 µM (active) | 0.233 µM (active) | 7.55 µM | 1.82 µM (inactive) | < 0.01 µM (active) | < 0.0237 µM (active) | < 0.0118 µM (active)
C[C@]12CC[C@H](O)CC1=CC[C@@H]1[C@@H]2CC[C@]2(C)C(=O)/C(=C/c3ccc([N+](=O)[O-])cc3)C[C@@H]12 | 93.8 µM (inactive) | 14.3 µM (inactive) | 20.1 µM (inactive) | 21.1 µM (inactive) | > 100 µM (inactive) | 3.43 µM (inactive) | 23.3 µM (inactive) | 47.4 µM (inactive) | 12.2 µM (inactive) | 6.65 µM (inactive) | 8.95 µM (inactive) | 5.9 µM (inactive) | 10.4 µM (inactive) | 16.2 µM (inactive) | 25.5 µM (inactive) | 28.8 µM | 8 µM (inactive) | 32.2 µM (inactive) | > 100 µM (inactive) | 6.92 µM (inactive)
CC(=O)Oc1c2ccsc2c(OC(C)=O)c2ccsc12 | 0.317 µM (active) | 1.89 µM (inactive) | 0.286 µM (active) | 0.189 µM (active) | 0.859 µM (active) | 2.62 µM (inactive) | 0.384 µM (active) | 1.08 µM (active) | 0.483 µM (active) | 1.07 µM (active) | 0.0172 µM (active) | 1.27 µM (inactive) | 1.47 µM (inactive) | 0.284 µM (active) | 2.12 µM (inactive) | 0.573 µM | 0.67 µM (active) | 0.667 µM (active) | 6.56 µM (inactive) | 0.294 µM (active)
O=c1cc(/C=C/c2ccc(O)c(O)c2)cc(/C=C/c2ccc(O)c(O)c2)o1 | 1.24 µM (inactive) | 8.79 µM (inactive) | 5.82 µM (inactive) | 12.5 µM (inactive) | 7.66 µM (inactive) | 14.3 µM (inactive) | 13.9 µM (inactive) | 13.6 µM (inactive) | 1.68 µM (inactive) | 9.44 µM (inactive) | 6.71 µM (inactive) | 10.5 µM (inactive) | 8.28 µM (inactive) | 32.9 µM (inactive) | 11.4 µM (inactive) | 10.4 µM | 14.3 µM (inactive) | 4.05 µM (inactive) | 5.02 µM (inactive) | 8.15 µM (inactive)
CN(C)CCNc1ccc2nnn3c4ccc(Cl)cc4c(=O)c1c23 | 1.33 µM (inactive) | 14.4 µM (inactive) | 4.89 µM (inactive) | 5.19 µM (inactive) | 4.62 µM (inactive) | 2.42 µM (inactive) | 16 µM (inactive) | 1.03 µM (active) | 2.49 µM (inactive) | 2.85 µM (inactive) | 3.15 µM (inactive) | 4.18 µM (inactive) | 4.17 µM (inactive) | 1.04 µM (active) | 1.88 µM (inactive) | 2.16 µM | 2.94 µM (inactive) | 5.01 µM (inactive) | 2.92 µM (inactive) | 4.78 µM (inactive)
O=C(NCCc1ccc(F)cc1)c1cc(/C=C/c2cc(O)ccc2O)ccc1O | 2.96 µM (inactive) | 2.24 µM (inactive) | 2.42 µM (inactive) | 2.41 µM (inactive) | 1.61 µM (inactive) | 2.24 µM (inactive) | 1.44 µM (inactive) | 7.64 µM (inactive) | 1.52 µM (inactive) | 16.1 µM (inactive) | 2.03 µM (inactive) | 6.11 µM (inactive) | 5.45 µM (inactive) | 2.69 µM (inactive) | 14.4 µM (inactive) | 2.26 µM | 2.67 µM (inactive) | 2.45 µM (inactive) | 3.01 µM (inactive) | 2.36 µM (inactive)
CC(NC(=O)/C(C#N)=C/c1ccc2[nH]ccc2c1)c1ccccc1 (stereo not given) | 24.2 µM (inactive) | 20.3 µM (inactive) | 28.2 µM (inactive) | 21.3 µM (inactive) | 17.5 µM (inactive) | 16.7 µM (inactive) | 11.2 µM (inactive) | 18.3 µM (inactive) | 12.8 µM (inactive) | 17.1 µM (inactive) | 19.3 µM (inactive) | 18.2 µM (inactive) | 19.6 µM (inactive) | 28.8 µM (inactive) | 17.5 µM (inactive) | 12.5 µM | 20.2 µM (inactive) | 20.9 µM (inactive) | 21.6 µM (inactive) | 19.8 µM (inactive)
COC(COC(N)=O)C1=C(N2CC2)C(=O)C(C)=C(N2CC2)C1=O (stereo not given) [CARBOQUONE] | < 0.0221 µM (active) | 0.0435 µM (active) | 0.0692 µM (active) | 0.126 µM (active) | 0.0355 µM (active) | 0.0201 µM (active) | 0.103 µM (active) | 0.0302 µM (active) | 0.0377 µM (active) | 0.0178 µM (active) | 0.107 µM (active) | < 0.0154 µM (active) | 0.0646 µM (active) | 0.0241 µM (active) | 0.0342 µM (active) | 0.0594 µM | 0.126 µM (active) | < 0.01 µM (active) | 0.117 µM (active) | < 0.0198 µM (active)
